Measurements from PMC10046862, “Screening of EWI-2-Derived Peptides for Targeting Tetraspanin CD81 and Their Effect on Cancer Cell Migration” (Biomolecules, 2023).
“Also recorded” adds a separate entry of the source. Values belong to the molecule of their own block, whether it stands above or below them.

Tests used:
[1] = tested on: Recombinant CD81 human protein (LEL Phe113-Lys201); assay: Binding assay between EWI-2 peptide array and Alexa Fluor 488-labeled CD81 (screening); settings: 500 nM labeled CD81, room temperature, 3 h, 3% BSA block; blank-subtracted; fluorescence scan; n = 3
Procedure: The peptide array was prepared similarly to the method described in previous reports. A peptide library of eight-residue peptides was obtained by overlapping four residues from Ig3 to the C-terminus of human EWI-2 (accession number: Q969P0) (Table S1). Next, the EWI-2 peptide array was synthesized on a Fmoc-β-Alanine-activated cellulose membrane using Fmoc-based chemistry. The synthesis cycle was initiated by deprotecting the N-terminal Fmoc group with 20% piperidine in DMF and then washing it with DMF and EtOH, respectively. […]
The Alexa Fluor™ 488 protein labeling kit (Thermo Fisher Scientific, Waltham, MA, USA) was applied to fluorescently label the CD81 protein. […] The concentration of the labeled CD81 protein solution was finally quantified using a Bradford protein assay kit (Takara Bio Inc., Shiga, Japan).
First, to reduce nonspecific interactions, the peptide array was blocked by 3% BSA in Tris–HCl buffer at room temperature for 15 min, followed by membrane washing with Tris–HCl buffer. […] Finally, the membrane was fluorescence-scanned and imaged by a biomolecular imager (Typhoon FLA 9500; GE Healthcare, Hatfield, UK), before the spot intensity of each peptide was measured using GE Healthcare’s ImageQuant TL 8.1 software.

[2] = tested on: MDA-MB-231 human breast cancer cells; assay: Boyden chamber assay (CytoSelect 96-well cell migration); format: cell-based; settings: 100 nM, 37 °C, n = 3; for Migration of MDA-MB-231 cells vs non-treatment: 24 h (1 h pre-incubation), 5% CO2, CyQuant GR fluorescence, t-test p < 0.05; for Anti-migration activity, P152 vs scrambled peptides: t-test, comparison with scrambled P152-1 and P152-2 (Figure 5)
Procedure: A Boyden chamber assay was performed using the CytoSelect™ 96-well cell migration assay kit (8 µm, Fluorometric Format, Cat. No. CBA-106; Cell Biolabs, Inc., San Diego, CA, USA). Human breast cancer MDA-MB-231 cells (HTB-26TM; American Type Culture Collection, Manassas, VA, USA) were suspended in serum-free D-MEM medium (1.85 × 10^5 cells/mL) containing 100 nM CD81-BP, AAAA or CD81 antibody (5A6) at 37 °C and 5% CO2 for 1 h. Then, within the Boyden chamber, 100 µL of the serum-free cell suspension was added to the upper chamber, while 150 µL of 10% FBS-containing medium was placed in the lower chamber. After incubation at 37 °C and 5% CO2 for 24 h, the cells that migrated to the lower chamber were detached from the membrane by cell detachment buffer, lysed by lysis buffer, and stained with CyQuant® GR dye. The fluorescence intensity of the cell lysate was analyzed at 480/520 nm by a microplate reader (Biomedical Solutions, Inc., Stafford, TX, USA).
The experiment was performed with at least three replicates. The t-test was performed using Prism 9 (GraphPad Software, Inc., La Jolla, CA, USA) or Microsoft Excel (Microsoft, WA, USA) to analyze the statistical significance difference. The statistical significance was set at p-value < 0.05.

[3] = target: T1, Recombinant CD81 human protein, large extracellular loop (LEL, Phe113-Lys201), Alexa Fluor 488-labeled (human, UniProt P60033 113-201, Alexa Fluor 488 dye (succinimidyl ester labeling)); assay: peptide or protein array; candidate peptides and control AAAA on cellulose membrane, blocked with 3% BSA; Alexa488-labeled CD81 at 50 nM to 1 µM, room temperature, 3 h; AAAA-subtracted spot intensity fitted to the Hill equation; estimated KD; settings: both partners purified
T1 construct: two additional amino acids (Gly and Pro) at the N-terminus of the LEL; CD81, human, large extracellular loop (LEL), Phe113-Lys201; also called CD81 protein; CD81 LEL; source: bought: Sino Biological (Cat. No. 14244-HNCH); labeled with the Alexa Fluor 488 protein labeling kit
T1 sequence: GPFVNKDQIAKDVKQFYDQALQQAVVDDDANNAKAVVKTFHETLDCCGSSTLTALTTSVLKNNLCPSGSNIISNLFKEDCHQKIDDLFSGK

Molecule: ASRTYRLR [Peptide P97]
Spot fluorescence intensity on array (candidate selection) [1]: greater than the average (AVG) and two standard deviations (SD)
Migration of MDA-MB-231 cells vs non-treatment [2]: no distinct inhibition was observed

Molecule: FMKRLRKR [Peptide P153, EWI-2-derived CD81-BP candidate, FMKRLRKR]
Spot fluorescence intensity on array (candidate selection) [1]: greater than the average (AVG) and two standard deviations (SD)
Migration of MDA-MB-231 cells vs non-treatment [2]: could significantly reduce the migration of MDA-MB-231 cells
Inhibition of migration compared with anti-human CD81 antibody 5A6 ([2]; 24 h): comparable or competitive to an anti-CD81 monoclonal human antibody (5A6)

Molecule: FRKCKMRL [Peptide P152-1, scrambled peptide of P152 (FRKCKMRL)]
Anti-migration activity, P152 vs scrambled peptides ([2]; 24 h): showed the impact on MDA-MB-23 cell migration as seemingly as the original P152; also recorded: only P152 origin showed statistical significance (p-value < 0.05)

Molecule: KKRCRFLM [Peptide P152-2, scrambled peptide of P152 (KKRCRFLM)]
Anti-migration activity, P152 vs scrambled peptides ([2]; 24 h): only P152 origin showed statistical significance (p-value < 0.05)

Kd [3]: 1.06 µM
B1: P97 (ASRTYRLR), EWI-2-derived eight-residue peptide (peptide)
peptide: ASRTYRLR
modifications: synthesized on a Fmoc-β-Alanine-activated cellulose membrane
notes: eight-residue stretch of human EWI-2 (immunoglobulin superfamily member 8), between the Ig3 domain and the C-terminus; For the migration assay the peptide was made as a free powder on Rink amide resin; also called CD81-BP candidate; source: synthetic peptide, spot-synthesized on cellulose membrane (peptide array)

Kd [3]: 0.91 µM
B2: P152 (CFMKRLRK), EWI-2-derived eight-residue peptide (peptide)
peptide: CFMKRLRK
modifications: synthesized on a Fmoc-β-Alanine-activated cellulose membrane
notes: eight-residue stretch of human EWI-2 (immunoglobulin superfamily member 8), near the C-terminus; For the migration assay the peptide was made as a free powder on Rink amide resin; also called CD81-BP candidate; source: synthetic peptide, spot-synthesized on cellulose membrane (peptide array)

Kd [3]: 12.6 µM
B3: P153 (FMKRLRKR), EWI-2-derived eight-residue peptide (peptide)
peptide: FMKRLRKR
modifications: synthesized on a Fmoc-β-Alanine-activated cellulose membrane
notes: last eight residues of human EWI-2 (immunoglobulin superfamily member 8); also called CD81-BP candidate; source: synthetic peptide, spot-synthesized on cellulose membrane (peptide array)

Kd [3]: 1.63 µM
B4: P132 (RSHRLRLH), EWI-2-derived eight-residue peptide (peptide)
peptide: RSHRLRLH
modifications: synthesized on a Fmoc-β-Alanine-activated cellulose membrane
notes: eight-residue stretch of human EWI-2 (immunoglobulin superfamily member 8), between the Ig3 domain and the C-terminus; also called CD81-BP candidate; source: synthetic peptide, spot-synthesized on cellulose membrane (peptide array)
